# Measurements: patent publication US20240368181A1, “QUINOXALINE DERIVATIVES AND USES THEREOF” (Black Diamond Therapeutics, Inc., priority 2021, published 2024)
# Columns and labels:
# Type in all cases: cell-based
# [1] = tested on: UM-UC-14 (FGFR3-S249C) cells; test: cell proliferation assay (CellTiterGlo), UM-UC-14 cells; conditions: UMUC14, 72 h
# From the text: (§1) In some embodiments, the biological assay assess the ability of the compounds to inhibit cell proliferation.
# (§2) In some embodiments, cells (e.g., SNU-16 (FGFR2-amplification) cells) may be suspended and dispensed in plates. In some embodiments, cells (e.g., UM-UC-14 (FGFR3-S249C) cells) may be suspended and dispensed in plates. In some embodiments, cells (e.g., DMS-114 (FGFR1 overexpression) cells) may by suspended and dispensed in plates. In some embodiments, cells (e.g., RT-112 (FGFR3-Tacc3 fusion) cells) may be suspended and dispensed in plates. In some embodiments, to determine the effect of the compounds of the present disclosure on cell proliferation, cells (e.g., SNU-16, UM-UC-14, DMS-114 and […] cells) may be incubated in the presence of vehicle control (e.g., DMSO) or a compound of the present disclosure at varying concentrations and the inhibition of cell growth may be determined by luminescent quantification (e.g., of intracellular ATP content using CellTiterGlo), according to the manufacturers protocol. In some embodiments, to determine the IC50 values, the vehicle-treated cells were normalized as viable cells and the growth was analyzed using a software (e.g., the CDD Vault software (Collaborative Drug Discovery, Burlingame, CA)).
# [2] = tested on: DMS-114 (FGFR1 overexpression) cells; test: cell proliferation assay (CellTiterGlo), DMS-114 cells; conditions: Homo sapiens, DMS-114, 72 h
# From the text: as §1, §2
# [3] = tested on: RT-112 (FGFR3-Tacc3 fusion) cells; test: cell proliferation assay (CellTiterGlo), RT-112 cells; conditions: Homo sapiens, RT-112, RT112 cells, 72 hours
# From the text: as §1, §2
# [4] = tested on: SNU-16 (FGFR2-amplification) cells; test: cell proliferation assay (CellTiterGlo), SNU-16 cells; conditions: Homo sapiens, 72 hours
# From the text: as §1, §2
Structure (SMILES),IC50 [1] [µM],IC50 [2] [µM],IC50 [3] [µM],IC50 [4] [µM]
Cc1nc2ccc(Oc3ccc4ncc(-c5cnn(CC6CC(F)(F)C6)c5)nc4c3-n3ccnc3)cc2[nH]1 [Compound 69],0.1 to 0.4,≥ 0.4,0.1 to 0.4,0.1 to 0.4
Cc1nc2ccc(Oc3ccc4ncc(-c5cnn(CC6(O)CC6)c5)nc4c3C3=CC(C)(C)OC3)c(F)c2[nH]1 [Compound 73],< 0.02,0.02 to 0.1,< 0.02,< 0.02
Cc1nc2ccc(Oc3ccc4ncc(-c5cnn(CC6(O)CC6)c5)nc4c3N3CCOC3=O)c(F)c2[nH]1 [Compound 74],≥ 0.4,≥ 0.4,≥ 0.4,≥ 0.4
Cc1nc2ccc(Oc3ccc4ncc(-c5cnn(CC6(O)CC6)c5)nc4c3N3CCOCC3)cc2[nH]1 [Compound 75],0.1 to 0.4,≥ 0.4,0.1 to 0.4,0.02 to 0.1
Cc1nc2ccc(Oc3ccc4ncc(-c5cnn(CC6CC(F)(F)C6)c5)nc4c3C3=CC(C)(C)OC3)cc2[nH]1 [Compound 76],< 0.02,0.1 to 0.4,< 0.02,< 0.02
Cc1nc2ccc(Oc3ccc4ncc(-c5cnn(CC6(O)CC6)c5)nc4c3C3=CCOC3)c(F)c2[nH]1 [Compound 77],0.02 to 0.1,0.02 to 0.1,< 0.02,< 0.02
CC(=O)N1CC=C(c2c(Oc3ccc4nc(C)[nH]c4c3)ccc3ncc(-c4cnn(CC5CC(F)(F)C5)c4)nc23)C1 [Compound 78],0.1 to 0.4,≥ 0.4,0.1 to 0.4,0.1 to 0.4
CN=S1(=O)CCC(n2cc(-c3cnc4ccc(Oc5ccc6nc(C)[nH]c6c5)c(Cl)c4n3)cn2)CC1 (stereo not drawn) [Compound 80],0.02 to 0.1,≥ 0.4,0.02 to 0.1,0.02 to 0.1
Cc1nc2ccc(Oc3ccc4ncc(-c5cnn(CC6CC(F)(F)C6)c5)nc4c3-c3ccoc3)c(F)c2[nH]1 [Compound 81],< 0.02,0.1 to 0.4,< 0.02,< 0.02
Cc1nc2ccc(Oc3ccc4ncc(-c5cnn(C6CCN(S(C)(=N)=O)CC6)c5)nc4c3Cl)cc2[nH]1 (stereo not drawn) [Compound 82],0.02 to 0.1,0.1 to 0.4,0.02 to 0.1,< 0.02
Cc1nc2ccc(Oc3ccc4ncc(-c5cnn(CC6CC(F)(F)C6)c5)nc4c3C3=CCNC3)cc2[nH]1 [Compound 83],0.02 to 0.1,≥ 0.4,0.1 to 0.4,0.1 to 0.4
Cc1nc2ccc(Oc3ccc4ncc(-c5cnn(CC6CC(F)(F)C6)c5)nc4c3C3=CCN(C(=O)OC(C)(C)C)C3)cc2[nH]1 [Compound 84],≥ 0.4,≥ 0.4,0.1 to 0.4,0.1 to 0.4
Cc1nc2ccc(Oc3ccc4ncc(-c5cnn(C6CCS(=N)(=O)CC6)c5)nc4c3Cl)cc2[nH]1 (stereo not drawn) [Compound 85],0.1 to 0.4,≥ 0.4,0.02 to 0.1,0.02 to 0.1
CN=S(C)(=O)N1CCC(n2cc(-c3cnc4ccc(Oc5ccc6nc(C)[nH]c6c5)c(Cl)c4n3)cn2)CC1 (stereo not drawn) [Compound 86],< 0.02,0.1 to 0.4,< 0.02,< 0.02
Cc1nc2ccc(Oc3ccc4ncc(-c5cnn(CC6CC(F)(F)C6)c5)nc4c3C3CCCOC3)cc2[nH]1 (stereo not drawn) [Compound 87],≥ 0.4,≥ 0.4,≥ 0.4,≥ 0.4
Cc1nc2ccc(Oc3ccc4ncc(-c5cnn(CC6CC(F)(F)C6)c5)nc4c3-n3ccnc3)c(F)c2[nH]1 [Compound 96],,0.1 to 0.4,0.02 to 0.1,0.02 to 0.1
Cc1nc2ccc(Oc3ccc4ncc(-c5cnn(CC6CC(F)(F)C6)c5)nc4c3Cl)c(Cl)c2[nH]1 [Compound 136],,,0.1 to 0.4,0.1 to 0.4
Cc1nc2ccc(Oc3ccc4ncc(-c5cnn(CC6(O)CC6)c5)nc4c3F)c(Cl)c2[nH]1 [Compound 137],,,0.1 to 0.4,0.1 to 0.4
Cc1nc2ccc(Oc3ccc4ncc(-c5cnn(CC6(O)COC6)c5)nc4c3Cl)c(F)c2[nH]1 [Compound 138],,,≥ 0.4,≥ 0.4
